Results on 11 compounds are retold here after patent publication US20250213593A1, “Use of Derivatives based on Sarsasapogenin Structure and Pharmaceutical Compositions thereof” (BEIJING PHYTOVENT PHARMACEUTICAL TECHNOLOGY CO., LTD., priority 2022, published 2025).

The structures appear in SMILES notation. “Also recorded” adds a separate entry of the source. Marks after values point to notes of the source that are not given here.

The subject of one assay is hippocampal neurons. In words: L-cysteine-induced neuronal excitotoxicity. Conditions: for protective effects on L-Cystine (400 μM)-induced neuronal excitotoxicity: compound 1 μM, 24 h before inducer. In kind it is cell-based, SD rats. How it is done: Experimental and analytical method: before the experiment, a 24-well cell culture plate was pretreated with Poly-D-lysine and placed in a cell incubator at 37° C. and 5% CO2 overnight. SD rats, 18 days pregnant, were ordered, brains of fetal rats (E18-19) were dissected, and hippocampal neurons in the brains were subjected to primary culture in a neuronal medium using a 24-well plate, and then cultured by a serum-free medium. The hippocampal neurons were cultured in a cell incubator at 37° C., 5% CO2 for 19 days (DIV19), then added with a compound to be tested (a final concentration of 1 μM) and a positive control AP5 [(2R)-amino-5-phosphonopentanoic acid(phosphonatopentanoate)] (a final concentration of 100 μM), cultured for 24 h, and then added with L-Cystine (400 μM) and NaHCO3 (10 mM). After 18 h, Hoechst3342 (2.5 μg/ml) was added for cell staining. The cells were placed in the incubator and cultured for 15 min, and photographed using the high-content fluorescence microscope, wherein 6 random non-overlapping fields were photographed for each duplicate well, and the total number of neurons and the number of dead neurons were counted with software Image J. The obtained data was used to determine whether there was a difference between a drug treatment group and a control group.
Compound treatment: 32 small molecule compounds in Embodiment 1 to Embodiment 19A were diluted with DMSO to a 1 mM mother solution; and 1 μL of mother solution was added to 1 ml of culture solution per well in a 24-well plate to a final concentration of 1 μM, wherein a positive control compound was […] of AP5 (100 mM mother solution), and a negative control was 1 μl of DMSO.

Assay [1] relates to C57BL/6J mice, LPS-induced peripheral and central inflammation. In words: LPS-induced peripheral and central inflammation mouse model. Conditions: 30 mg/kg p.o. QD*3. In kind it is in vivo. The procedure:
Modeling method: LPS (2 mg/kg, i.p., QD) was injected on Day 1, Day 2 and Day 3 to induce peripheral and central inflammations of mice. An ND drug test group was subjected to administration pre-protection (ND 30 mg/kg, p.o., QD) 2 h before LPS injection. After the experiment, plasma and brain tissues of the mice were collected for inflammatory factors, peroxidation factors and other indicators.
• Serum: after the mice were anesthetized with 1% sodium pentobarbital, the eyeballs were harvested, the blood was taken and placed in an EP tube, and then centrifuged at low temperature after standing at 4° C. for 1 h, and a supernatant was taken, and frozen quickly in liquid nitrogen. • Hippocampal tissues: the mice were anesthetized with 1% sodium pentobarbital and then subjected to cardiac perfusion with cold PBS, brains were harvested, and tissues were taken on ice and frozen quickly in an EP tube with liquid nitrogen.
Cryopreserved plasma was taken, and an reactive oxygen detection kit, a hydrogen peroxide detection kit and a nitric oxide detection kit were used to detect various indicators. The specific operation processes were the same as the instruction of each kit.
The cryopreserved hippocampal tissues were taken, added with a RIPA tissue lysate containing a protease inhibitor, fully homogenized and cleaved. A supernatant was taken after low-temperature centrifugation. The protein quantification was performed by a BCA protein quantification kit. Tissue samples were adjusted to a unified protein concentration. An reactive oxygen detection kit, a hydrogen peroxide detection kit and a nitric oxide detection kit were used to detect various indicators.
Cryopreserved plasma was taken, and IL-1β, IL-6 and IL-10 kits were used to detect various indicators. The specific operation processes were the same as the instruction of each kit.
A hippocampal tissue supernatant was taken, and IL-1β, IL-6 and IL-10 kits were used to detect various indicators. The specific operation processes were the same as the instruction of each kit.
Experimental results were expressed as “mean±standard deviation”. One-way ANOVA was used to compare the data of each group to determine whether there was a statistical difference between the groups.

Assay [2] concerns mice with ulcerative colitis induced by 3.0% DSS. Description: DSS mouse enteritis model. Format: in vivo. An excerpt: 60 mice in good health were divided into 6 groups according to body weight, with 10 mice in each group: a normal control group, a model group, a positive drug group, and groups of different test products (Embodiment 13B, Embodiment 33, and Embodiment 34, at a dosage of 80 mpk each). In addition to the normal control group, the mice in other groups were administrated with a 3.0% DSS solution to drink freely, and consecutively modeled for 8 days. The normal control group was administrated with autoclaved filtered water to drink freely. The drug was administered on the day of modeling, and a test product was administered by oral gavage according to a designed dosage, once a day for 9 consecutive days. […] On the next day after the last administration, after deep anesthesia with CO2, cardiac blood and plasma were collected, and cryopreserved at −80° C. Subsequently, the abdominal cavity was dissected, the liver was removed and cryopreserved at −80° C. Finally, the entire colon tissue was removed, the colon length was measured, photographs were taken, and the colon content was washed with normal saline after dissection along the mesenteric side and weighed.

In assay [3] the test system is rats with ulcerative colitis induced by TNBS. Description: TNBS rats enteritis model. Format: in vivo, rat. Conditions: 80 mpk oral gavage once a day, 7 days. The procedure:
All rats except the normal control group were fasted for solids (not liquids) for 24 h. After being anesthetized with isoflurane, the rats were transrectally infused with a TNBS ethanol solution (18 mg TNBS/mouse) at 0.5 mL/mouse through a latex hose, the length of the hose into the rectum was about 8 cm, an anesthesia state was continued after the hose was withdrawn, and the rats were kept in an inclined state for 15 min. The rats in the normal control group were not stimulated with rectal cannula. After the animals were awake, they were randomly divided into groups, which then began to be administrated with drugs (marked as D1). The blank group and the model group were administrated with the same amount of vehicle by oral gavage once a day for 7 consecutive days (D1-D7). The animal's status and feces (loose stools or bloody stools) were observed every day. The body weights were monitored. On the next day after the last administration (D8), the animals were deeply anesthetized with CO2, sacrificed and dissected. The entire colon tissues were harvested. The colon content was washed with normal saline after dissection along the mesenteric side. The body weights were measured and the colon lengths were measured. A ulcer surface was measured by Image J software. The general conditions of the colons were observed and photographed. Some of diseased tissues were fixed with formalin, and subjected to histopathological observation by HE staining. • Results: (1) the effects on general conditions of TNBS colitis mice were shown in FIG. 46a: the rats had loose stool on the next day of TNBS modeling; and the modeled mice had symptoms of reduced diet, tiredness, emaciation, erect hair, and dull hair. The feces of some rats were improved in the later stage of administration, but some rats still maintained loose stool until the end of the experiment, and some rats had obvious abdominal distension in the later stage of the experiment.

In assay [4] the test system is transgenic neutrophil fluorescent zebrafishes. In words: Anti-inflammatory effect on LPS-induced inflammatory zebrafish. The settings on record: 80 μM; for Number of neutrophils (mean ± SE): 3 h, n = 10, model control 18, normal control 3. Format: in vivo. How it is done:
LPS was used to treat normal 3 dpf transgenic neutrophil fluorescent zebrafishes in a yolk sac injection, and a zebrafish inflammation model was established.
Transgenic neutrophil fluorescent zebrafishes (3 dpf), well developed and consistent in stage on 3 days after fertilization, were picked under a microscope and placed in a six-well plate, with 30 zebrafishes being randomly picked for each well at a capacity of 3 mL in each well. A zebrafish inflammation model was established by administrating LPS in a yolk sac injection. “Embodiment 5” and “Embodiment 6” were respectively dissolved with water, wherein the concentrations were 0.28 μM, 0.83 μM and 2.5 μM, respectively. The concentration of indomethacin was 80 μM. Meanwhile, a normal control group (i.e., zebrafishes were treated with fish-farming water) and a model control group were set, and incubated in a 28° C. incubator for 3 h. 10 zebrafishes were randomly selected from each group, and observed and photographed under a fluorescence microscope, and the photos were saved. Nikon NIS-Elements D 3.10 advanced image processing software was used for image analysis, the number (N) of inflammatory neutrophils in zebrafish was calculated, and the statistical processing results were expressed as mean±SE. The statistical analysis results of the number of inflammatory neutrophils in zebrafish were used to evaluate whether “Embodiment 5” and “Embodiment 6” had significant anti-inflammatory effects on LPS-induced inflammatory zebrafish, respectively. A formula for calculating the anti-inflammatory effects of “Embodiment 5” and “Embodiment 6” was as follows: […]

Setting [5] is: 80 mpk oral gavage once a day, 9 days.

Take `N[C@H](CCCP(=O)(O)O)C(=O)O` [AP5, (2R)-amino-5-phosphonopentanoic acid(phosphonatopentanoate), reference compound]: the “protective effect on the neuronal excitotoxicity” value with hippocampal neurons (AP5 100 μM) is “very significant protective effect”. Besides, the “proportion of dead cells” value in the assay with hippocampal neurons (AP5 100 μM, L-Cystine 400 μM + NaHCO3 10 mM, without inducer 20.12%, DMSO 87.62%) is 27.58%.
Regarding `C[C@H]1CC[C@@]2(OC1)O[C@H]1C[C@H]3[C@@H]4CC[C@@H]5CC(NC(=O)CCN6CCN(C)CC6)CC[C@]5(C)[C@H]4CC[C@]3(C)[C@H]1[C@@H]2C` (some centres unmarked) [Embodiment 1], the “protective effects on L-Cystine (400 μM)-induced neuronal excitotoxicity” value with hippocampal neurons was “protective effects”.
The same measure, in the same setting: for `C[C@H]1CC[C@@]2(OC1)O[C@H]1C[C@H]3[C@@H]4CC[C@@H]5C[C@H](NC(=O)CCN(C)C)CC[C@]5(C)[C@H]4CC[C@]3(C)[C@H]1[C@@H]2C` [Embodiment 4B] the value was “protective effects”.
The same measure, in the same setting: with `C[C@H]1CC[C@@]2(OC1)O[C@H]1C[C@H]3[C@@H]4CC[C@@H]5CC(NC(=O)CC(=O)N6CCNCC6)CC[C@]5(C)[C@H]4CC[C@]3(C)[C@H]1[C@@H]2C` (some centres unmarked) [Embodiment 10] the entry was “protective effects”.
For the compound `C[C@@H]1CC[C@@]2(OC1)OC1CC3C4CC[C@H]5C[C@@H](NC(=O)CCN(C)C)CC[C@]5(C)C4CC(=O)[C@]3(C)C1[C@@H]2C` (some centres unmarked) [Embodiment 20A], in assay [1], the IL-10 in hippocampus entry is “only affected”, the IL-10 in serum entry is given as “only affected”, the “anti-inflammatory effect (in words)” value is reported as “obvious anti-inflammatory effect; also recorded: good anti-inflammatory effect” and the “antioxidant effect (in words)” value is reported as “good antioxidant effect”. In addition, in assay [1] (vs LPS group), the “H2O2 concentration in serum” value is on record as “significantly improved”, the “NO concentration in serum” value was “significantly improved” and the “ROS level in serum” value was “significantly improved”.
As for `CC(C)CN1CCN(C2CCN(C(=O)CC(=O)NC3CC[C@]4(C)C5CC[C@]6(C)[C@@H]7[C@H](C[C@H]6[C@@H]5CC[C@@H]4C3)O[C@]3(CC[C@H](C)CO3)[C@H]7C)CC2)CC1` (some centres unmarked) [Embodiment 33], in assay [2] (setting [5]), the colon length entry is “could increase the weights and lengths of the colons”; the colon weight entry is “could increase the weights and lengths of the colons”; the “general conditions of DSS colitis mice” value is “certain improvement effects”.
Consider `CC(C)N1CCC(N2CCN(C(=O)CC(=O)NC3CC[C@]4(C)C5CC[C@]6(C)[C@@H]7[C@H](C[C@H]6[C@@H]5CC[C@@H]4C3)O[C@]3(CC[C@H](C)CO3)[C@H]7C)CC2)CC1` (some centres unmarked) [Embodiment 34], for which, in assay [2] (setting [5]), the colon length entry is “could increase the weights and lengths of the colons”; the colon weight result is “could increase the weights and lengths of the colons”; the “general conditions of DSS colitis mice” value was “certain improvement effects”.
For `C[C@H]1CC[C@@]2(OC1)O[C@H]1C[C@H]3[C@@H]4CC[C@@H]5CC(NC(=O)CC(=O)N6CCN(C7CCN(CCF)CC7)CC6)CC[C@]5(C)C4CC[C@]3(C)[C@H]1[C@@H]2C` (some centres unmarked) [Embodiment 36], in assay [3], the colon ulcer area entry is “could reduce” and the “colon weight per unit length (colon weight/colon length)” value is on record as “could reduce”.
As to `C[C@H]1CC[C@@]2(OC1)O[C@H]1C[C@H]3[C@@H]4CC[C@@H]5CC(NC(=O)CC(=O)N6CCN(C(=O)CN(C)C)CC6)CC[C@]5(C)C4CC[C@]3(C)[C@H]1[C@@H]2C` (some centres unmarked) [Embodiment 37], in assay [3], the colon ulcer area entry is “could reduce” and the “colon weight per unit length (colon weight/colon length)” value is given as “could reduce”.
Regarding `O=C(O)c1cc(/N=N/c2ccc(S(=O)(=O)Nc3ccccn3)cc2)ccc1O` [SASP, reference compound], in assay [2] (720 mg/kg positive drug), the colon atrophy result is on record as “could inhibit colon atrophy” and the “general conditions of DSS colitis mice” value was “certain improvement effects”.
For `COc1ccc2c(c1)c(CC(=O)O)c(C)n2C(=O)c1ccc(Cl)cc1` [indomethacin, Indomethacin, reference compound], in assay [4], the “Inflammation resolution (%) / anti-inflammatory effect” value turned out to be 67% and the “Number of neutrophils (mean ± SE)” value is reported as 6. For the same compound, in assay [4] (listed as Indomethacin), the “Number of neutrophils (mean ± SE)” value came out at 6 ± 0.31 and the “Inflammation resolution (%) / anti-inflammatory effect” value is 67*** %. Moreover, in assay [4] (P<0.001 vs model control), the “anti-inflammatory effect on inflammatory zebrafish (in words)” value was “obvious anti-inflammatory effect”.
